According to the supplement of paper PMC4862054:
Values joined by “and” are separate entries in the source; they are usually repeats but may differ in a detail not shown here. Equal entries are not always repeated.

tested on: BT-474; assay: drug sensitivity score (DSS), CellTiter-Blue viability (DSS (AUC-based score)); higher = stronger viability inhibition; extreme values may be limits of the assay; conditions: incubation time: 72 h
Method: (§1)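 DSRT with the CellTiter-Blue (resazurin reduction) viability readout, fluorescence 560/590 nm, 72 h incubation. Plates were normalised to DMSO and benzethonium chloride controls. DSS is computed from the area under the fitted dose-response curve (5 or 9 concentrations).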

SMILES	drug sensitivity score
N#Cc1ccc(C(c2ccc(C#N)cc2)n2cncn2)cc1 [Letrozole]	0
CCCS(=O)(=O)Nc1ccc(F)c(C(=O)c2c[nH]c3ncc(-c4ccc(Cl)cc4)cc23)c1F [Vemurafenib]	0
O=C(O)C(=O)O.[NH-][C@@H]1CCCC[C@H]1[NH-].[Pt+2] [Oxaliplatin]	0
CCN(CC)CCCC(C)Nc1c2ccc(Cl)cc2nc2ccc(OC)cc12 (stereo not drawn) [Mepacrine]	4.38 and 1.69
Cc1ccc(-c2cc(C(F)(F)F)nn2-c2ccc(S(N)(=O)=O)cc2)cc1 [Celecoxib]	0
COc1cc2c(Oc3ccc4[nH]c(C)cc4c3F)ncnc2cc1OCCCN1CCCC1 [Cediranib]	0
Nc1nc2[nH]cc(CCc3ccc(C(=O)N[C@@H](CCC(=O)O)C(=O)O)cc3)c2c(=O)[nH]1 [Pemetrexed]	0
C[C@H]1C[C@@H]2[C@H]([C@@H](O)C[C@@]3(C)[C@H]2CC[C@]3(O)C(=O)CO)[C@@]2(C)C=CC(=O)C=C12 [Methylprednisolone]	0
COc1cc([C@@H]2c3cc4c(cc3[C@@H](O[C@@H]3O[C@@H]5CO[C@@H](c6cccs6)O[C@H]5[C@H](O)[C@H]3O)[C@H]3COC(=O)[C@H]23)OCO4)cc(OC)c1O [Teniposide]	1.44

tested on: BT-549; assay: as above; conditions: incubation time: 72 h
Method: as §1

SMILES	drug sensitivity score
N#Cc1ccc(C(c2ccc(C#N)cc2)n2cncn2)cc1 [Letrozole]	0
CCCS(=O)(=O)Nc1ccc(F)c(C(=O)c2c[nH]c3ncc(-c4ccc(Cl)cc4)cc23)c1F [Vemurafenib]	0
O=C(O)C(=O)O.[NH-][C@@H]1CCCC[C@H]1[NH-].[Pt+2] [Oxaliplatin]	4
CCN(CC)CCCC(C)Nc1c2ccc(Cl)cc2nc2ccc(OC)cc12 (stereo not drawn) [Mepacrine]	2.79 and 5
Cc1ccc(-c2cc(C(F)(F)F)nn2-c2ccc(S(N)(=O)=O)cc2)cc1 [Celecoxib]	0
COc1cc2c(Oc3ccc4[nH]c(C)cc4c3F)ncnc2cc1OCCCN1CCCC1 [Cediranib]	0
Nc1nc2[nH]cc(CCc3ccc(C(=O)N[C@@H](CCC(=O)O)C(=O)O)cc3)c2c(=O)[nH]1 [Pemetrexed]	0
C[C@H]1C[C@@H]2[C@H]([C@@H](O)C[C@@]3(C)[C@H]2CC[C@]3(O)C(=O)CO)[C@@]2(C)C=CC(=O)C=C12 [Methylprednisolone]	3.25
COc1cc([C@@H]2c3cc4c(cc3[C@@H](O[C@@H]3O[C@@H]5CO[C@@H](c6cccs6)O[C@H]5[C@H](O)[C@H]3O)[C@H]3COC(=O)[C@H]23)OCO4)cc(OC)c1O [Teniposide]	9.11

tested on: CAL-120; assay: as above; conditions: incubation time: 72 h
Method: as §1

SMILES	drug sensitivity score
N#Cc1ccc(C(c2ccc(C#N)cc2)n2cncn2)cc1 [Letrozole]	0
CCCS(=O)(=O)Nc1ccc(F)c(C(=O)c2c[nH]c3ncc(-c4ccc(Cl)cc4)cc23)c1F [Vemurafenib]	0
O=C(O)C(=O)O.[NH-][C@@H]1CCCC[C@H]1[NH-].[Pt+2] [Oxaliplatin]	0
CCN(CC)CCCC(C)Nc1c2ccc(Cl)cc2nc2ccc(OC)cc12 (stereo not drawn) [Mepacrine]	6.95 and 4.06
Cc1ccc(-c2cc(C(F)(F)F)nn2-c2ccc(S(N)(=O)=O)cc2)cc1 [Celecoxib]	0
COc1cc2c(Oc3ccc4[nH]c(C)cc4c3F)ncnc2cc1OCCCN1CCCC1 [Cediranib]	0
Nc1nc2[nH]cc(CCc3ccc(C(=O)N[C@@H](CCC(=O)O)C(=O)O)cc3)c2c(=O)[nH]1 [Pemetrexed]	1.61
C[C@H]1C[C@@H]2[C@H]([C@@H](O)C[C@@]3(C)[C@H]2CC[C@]3(O)C(=O)CO)[C@@]2(C)C=CC(=O)C=C12 [Methylprednisolone]	0
COc1cc([C@@H]2c3cc4c(cc3[C@@H](O[C@@H]3O[C@@H]5CO[C@@H](c6cccs6)O[C@H]5[C@H](O)[C@H]3O)[C@H]3COC(=O)[C@H]23)OCO4)cc(OC)c1O [Teniposide]	11.2

tested on: CAL-148; assay: as above; conditions: incubation time: 72 h
Method: as §1

SMILES	drug sensitivity score
N#Cc1ccc(C(c2ccc(C#N)cc2)n2cncn2)cc1 [Letrozole]	0
CCCS(=O)(=O)Nc1ccc(F)c(C(=O)c2c[nH]c3ncc(-c4ccc(Cl)cc4)cc23)c1F [Vemurafenib]	0
O=C(O)C(=O)O.[NH-][C@@H]1CCCC[C@H]1[NH-].[Pt+2] [Oxaliplatin]	2.79
CCN(CC)CCCC(C)Nc1c2ccc(Cl)cc2nc2ccc(OC)cc12 (stereo not drawn) [Mepacrine]	5.43 and 4.13
Cc1ccc(-c2cc(C(F)(F)F)nn2-c2ccc(S(N)(=O)=O)cc2)cc1 [Celecoxib]	0
COc1cc2c(Oc3ccc4[nH]c(C)cc4c3F)ncnc2cc1OCCCN1CCCC1 [Cediranib]	0
Nc1nc2[nH]cc(CCc3ccc(C(=O)N[C@@H](CCC(=O)O)C(=O)O)cc3)c2c(=O)[nH]1 [Pemetrexed]	0
C[C@H]1C[C@@H]2[C@H]([C@@H](O)C[C@@]3(C)[C@H]2CC[C@]3(O)C(=O)CO)[C@@]2(C)C=CC(=O)C=C12 [Methylprednisolone]	0
COc1cc([C@@H]2c3cc4c(cc3[C@@H](O[C@@H]3O[C@@H]5CO[C@@H](c6cccs6)O[C@H]5[C@H](O)[C@H]3O)[C@H]3COC(=O)[C@H]23)OCO4)cc(OC)c1O [Teniposide]	18.5

tested on: CAL-51; assay: as above; conditions: incubation time: 72 h
Method: as §1

SMILES	drug sensitivity score
N#Cc1ccc(C(c2ccc(C#N)cc2)n2cncn2)cc1 [Letrozole]	0
CCCS(=O)(=O)Nc1ccc(F)c(C(=O)c2c[nH]c3ncc(-c4ccc(Cl)cc4)cc23)c1F [Vemurafenib]	0
O=C(O)C(=O)O.[NH-][C@@H]1CCCC[C@H]1[NH-].[Pt+2] [Oxaliplatin]	1.13
CCN(CC)CCCC(C)Nc1c2ccc(Cl)cc2nc2ccc(OC)cc12 (stereo not drawn) [Mepacrine]	3.49 and 2.1
Cc1ccc(-c2cc(C(F)(F)F)nn2-c2ccc(S(N)(=O)=O)cc2)cc1 [Celecoxib]	0
COc1cc2c(Oc3ccc4[nH]c(C)cc4c3F)ncnc2cc1OCCCN1CCCC1 [Cediranib]	0
Nc1nc2[nH]cc(CCc3ccc(C(=O)N[C@@H](CCC(=O)O)C(=O)O)cc3)c2c(=O)[nH]1 [Pemetrexed]	0
C[C@H]1C[C@@H]2[C@H]([C@@H](O)C[C@@]3(C)[C@H]2CC[C@]3(O)C(=O)CO)[C@@]2(C)C=CC(=O)C=C12 [Methylprednisolone]	0
COc1cc([C@@H]2c3cc4c(cc3[C@@H](O[C@@H]3O[C@@H]5CO[C@@H](c6cccs6)O[C@H]5[C@H](O)[C@H]3O)[C@H]3COC(=O)[C@H]23)OCO4)cc(OC)c1O [Teniposide]	22.2

tested on: CAL-85-1; assay: as above; conditions: incubation time: 72 h
Method: as §1

SMILES	drug sensitivity score
N#Cc1ccc(C(c2ccc(C#N)cc2)n2cncn2)cc1 [Letrozole]	0
CCCS(=O)(=O)Nc1ccc(F)c(C(=O)c2c[nH]c3ncc(-c4ccc(Cl)cc4)cc23)c1F [Vemurafenib]	2.25
O=C(O)C(=O)O.[NH-][C@@H]1CCCC[C@H]1[NH-].[Pt+2] [Oxaliplatin]	0
CCN(CC)CCCC(C)Nc1c2ccc(Cl)cc2nc2ccc(OC)cc12 (stereo not drawn) [Mepacrine]	4.8 and 2.06
Cc1ccc(-c2cc(C(F)(F)F)nn2-c2ccc(S(N)(=O)=O)cc2)cc1 [Celecoxib]	0
COc1cc2c(Oc3ccc4[nH]c(C)cc4c3F)ncnc2cc1OCCCN1CCCC1 [Cediranib]	0
Nc1nc2[nH]cc(CCc3ccc(C(=O)N[C@@H](CCC(=O)O)C(=O)O)cc3)c2c(=O)[nH]1 [Pemetrexed]	5.19
C[C@H]1C[C@@H]2[C@H]([C@@H](O)C[C@@]3(C)[C@H]2CC[C@]3(O)C(=O)CO)[C@@]2(C)C=CC(=O)C=C12 [Methylprednisolone]	0
COc1cc([C@@H]2c3cc4c(cc3[C@@H](O[C@@H]3O[C@@H]5CO[C@@H](c6cccs6)O[C@H]5[C@H](O)[C@H]3O)[C@H]3COC(=O)[C@H]23)OCO4)cc(OC)c1O [Teniposide]	8.14

tested on: DU-4475; assay: as above; conditions: incubation time: 72 h
Method: as §1

SMILES	drug sensitivity score
N#Cc1ccc(C(c2ccc(C#N)cc2)n2cncn2)cc1 [Letrozole]	0
CCCS(=O)(=O)Nc1ccc(F)c(C(=O)c2c[nH]c3ncc(-c4ccc(Cl)cc4)cc23)c1F [Vemurafenib]	17.3
O=C(O)C(=O)O.[NH-][C@@H]1CCCC[C@H]1[NH-].[Pt+2] [Oxaliplatin]	1.32
CCN(CC)CCCC(C)Nc1c2ccc(Cl)cc2nc2ccc(OC)cc12 (stereo not drawn) [Mepacrine]	4.6 and 3.08
